Source: patent publication US8252749B2, “Methods, kits, and compositions for generating new hair follicles and growing hair” (Follica, Inc., priority 2006, dated 2012)
“Also recorded” adds a separate entry of the source.

Experiments:
[1] = test system: new HF formation by EDIHN in wounded skin; assay: whole-mount EDIHN assay after excisional wounding of mice; format: in vivo
Text: Punch wound and excisional wound induction. The backs of 21-day-old mice were depilated as described for Example 1 and sterilized with alcohol, followed by 1% iodine solution. Punch wounds, 4 mm in diameter, were induced using a dermal biopsy punch, down to, but not through, the muscle fascia. Excisional wounds were full thickness and 1 cm in diameter; skin and panniculus carnosus was excised using fine surgical scissors.
Whole mounting and immunofluorescence. HF whole mounts were obtained by incubating fresh skin with EDTA (20 mM in PBS) at 37° C. overnight, then separating the epidermis and dermis. Epidermis was then fixed in 10% formalin for 10 min, room temperature (RT). Dermis was fixed in acetone overnight, RT. After rinsing with PBS, whole mounts were stained with antibodies for immunohistochemistry (schematically depicted in FIG. 12) and were imaged using a Leica confocal microscope.
21 day-old mice were wounded as described in previous Examples. Starting from day 11 after wounding, a time point corresponding to the point at which the wound had recently re-epithelialized, 10 mL of 1 mg/ml EGF was injected into the wound bed. EGF was injected once per day after this point for a total of 5 days. Three days later, the skin was collected, and whole-mount EDIHN assays were performed. […] In addition, whole mounts of control and treated skin were analyzed with anti-K17 antibody immunostaining. […] (FIGS. 25 C-D).
In an additional experiment, recombinant EGF (1 microgram (mcg)/microliter (mcl)) was injected at days 11, 13 and 15 after wounding. Skin was collected at 18 days after wounding and stained for K17 and alkaline phosphotase.
To determine the effect of administration of EGF receptor inhibitors on DIHN, the inhibitor AG1478 (150 μM in 10 μL volume) was administered as a single injection 11 days after incisional wounding (1 cm2) to the middle of the wound near the skin surface. […] Left panel: epidermis stained for K17, with three large hair follicles next to each other. Right panel: dermis stained for AP with large coalescing dermal papilla areas.

[2] = test system: hair re-growth in abraded areas; assay: hair re-growth after epidermal abrasion of mice; format: in vivo; conditions: epidermis of mice abraded, then recombinant EGF administered
Text: Depilation and epidermal abrasion. Mice were anesthetized with an injection of sodium pentobarbital before the hair on the back was clipped and depilated with Nair (Carter-Wallace, New York, N.Y.), then epidermis was removed using a rotating felt wheel as described by Argyris T, J. Invest. Dermatol. 75: 360 (1980). After scrubbing with 70% ethanol and drying under an incandescent lamp, the basal and supra-basal layers in an area of 1.5 cm^2/cm of the inter-follicular epidermis were removed by careful abrasion with a felt wheel mounted on a Dremel Moto-tool (Racine, Wis.). After abrasion, the skin was shiny and smooth, and there was no blood. One day later, the abraded area was covered by a fibrin crust, which fell off after 3-7 days, exposing the newly regenerated epidermis. A group of control mice was sacrificed immediately after abrasion to confirm microscopically the complete removal of the interfollicular epidermis.
Hair-bearing regions of the epidermis of mice is abraded, as described in Example 1, then administering recombinant EGF, as described in Example 1.

EGF: epidermal growth factor, recombinant, injected into the wound bed
HF formation as assessed by gross morphology ([1]; 21 day-old mice, 10 mL of 1 mg/ml EGF injected into wound bed once per day for 5 days from day 11 after wounding, skin collected three days later): prevented HF formation | new HF formation, whole mounts with anti-K17 antibody immunostaining ([1]; 21 day-old mice, EGF injected into wound bed once per day for 5 days from day 11 after wounding, n=4 vs control n=2): no new HF formation; also recorded: inhibits HF formation | EDIHN, skin stained for K17 and alkaline phosphotase ([1]; recombinant EGF 1 mcg/mcl injected at days 11, 13 and 15 after wounding, skin collected at 18 days): inhibited EDIHN | hair re-growth in the abraded areas [2]: prevents hair re-growth

COc1cc2ncnc(Nc3cccc(Cl)c3)c2cc1OC [AG1478, reference compound]
generation of hair follicles (number and size) compared with control mice that were wounded only ([1]; 150 μM in 10 μL, single injection 11 days after excisional wounding (1 cm diameter), middle of the wound): more and larger hair follicles; also recorded: more and larger HF
